Measured values taken from PubChem BioAssay AID2067 (The Scripps Research Institute Molecular Screening Center, 2009).

Target: Collagenase 3 (Homo sapiens) (UniProt P45452)
Assay: MMP13 inhibition and MMP selectivity, late-stage follow-up, selectivity assay for MMP13 inhibitor project, biochemical, probe development, late stage results (AID 2067)
Conditions: recombinant MMP panel, fTHP FRET substrate cleavage, MMP-13; for Ki: Ki assay, MMP-13 Ki, Lineweaver-Burk

IC50 [nM] | Ki [nM] | SMILES
2440 | 840 | Cc1ccc(CSc2nc3c(c(=O)[nH]2)CCC3)cc1
3360 | 3800 | O=c1[nH]c(SCc2ccc(Cl)cc2)nc2c1CCC2
2820 | 1500 | COC(=O)c1ccc(CSc2nc3c(c(=O)[nH]2)CCC3)cc1
